Measurements from the supplement of paper PMC10307832.

Tests used:
Test in all cases: relative viability (nuclei count vs DMSO), 5 days (fraction); higher = more cells survive
4EGI-1 + Alpelisib = compound: O=C(O)C(Cc1ccccc1[N+](=O)[O-])=NNc1nc(-c2ccc(Cl)c(Cl)c2)cs1 (mixture of isomers) [4EGI-1] + Cc1nc(NC(=O)N2CCC[C@H]2C(N)=O)sc1-c1ccnc(C(C)(C)C(F)(F)F)c1 [Alpelisib] (partner 2 µM)
Method in brief: (§1)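 Cells from lung cancer lines were seeded into 1536-well plates and, one day later, dosed by pin tool. Treatments were either a single drug or a fixed dose of an anchor drug with five library-drug doses (not always all listed) in √10 steps. After 5 days, nuclei were stained in a one-step fixation (final 0.05% Triton X-100, 1% formaldehyde, 1 ug/ml Hoechst) and counted on 4× images, and relative viability is the treated-to-vehicle nuclei ratio, as the median of duplicate plates.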

4EGI-1 + Olaparib = compound: O=C(O)C(Cc1ccccc1[N+](=O)[O-])=NNc1nc(-c2ccc(Cl)c(Cl)c2)cs1 (mixture of isomers) [4EGI-1] + O=C(c1cc(Cc2n[nH]c(=O)c3ccccc23)ccc1F)N1CCN(C(=O)C2CC2)CC1 [Olaparib] (partner 8 µM)
Method in brief: as §1

4EGI-1 + Tozasertib = compound: O=C(O)C(Cc1ccccc1[N+](=O)[O-])=NNc1nc(-c2ccc(Cl)c(Cl)c2)cs1 (mixture of isomers) [4EGI-1] + Cc1cc(Nc2cc(N3CCN(C)CC3)nc(Sc3ccc(NC(=O)C4CC4)cc3)n2)n[nH]1 [Tozasertib] (partner 0.1 µM)
Method in brief: as §1

XMD8-85 + Lapatinib = compound: CN1CCN(CC1)C2=CC(=C(C=C2)NC3=NC=C4C(=N3)N(C5=CC=CC=C5C(=O)N4C)C)OC [XMD8-85] + CS(=O)(=O)CCNCc1ccc(-c2ccc3ncnc(Nc4ccc(OCc5cccc(F)c5)c(Cl)c4)c3c2)o1 [Lapatinib] (partner 2 µM)
Method in brief: as §1

Cell Line	relative viability (4EGI-1 + Alpelisib; first compound 0.5 µM)	relative viability (4EGI-1 + Alpelisib; first compound 1.581 µM)	relative viability (4EGI-1 + Alpelisib; first compound 5 µM)	relative viability (4EGI-1 + Alpelisib; first compound 15.81 µM)	relative viability (4EGI-1 + Alpelisib; first compound 50 µM)	relative viability (4EGI-1 + Olaparib; first compound 0.5 µM)	relative viability (4EGI-1 + Olaparib; first compound 1.581 µM)	relative viability (4EGI-1 + Olaparib; first compound 5 µM)	relative viability (4EGI-1 + Olaparib; first compound 15.81 µM)	relative viability (4EGI-1 + Olaparib; first compound 50 µM)	relative viability (4EGI-1 + Tozasertib; first compound 0.5 µM)	relative viability (4EGI-1 + Tozasertib; first compound 1.581 µM)	relative viability (4EGI-1 + Tozasertib; first compound 5 µM)	relative viability (4EGI-1 + Tozasertib; first compound 15.81 µM)	relative viability (4EGI-1 + Tozasertib; first compound 50 µM)	relative viability (XMD8-85 + Lapatinib; first compound 0.08 µM)	relative viability (XMD8-85 + Lapatinib; first compound 0.253 µM)	relative viability (XMD8-85 + Lapatinib; first compound 0.8 µM)	relative viability (XMD8-85 + Lapatinib; first compound 2.53 µM)	relative viability (XMD8-85 + Lapatinib; first compound 8 µM)
SK-MES-1	0.968	0.735	0.911	0.773	0.827	0.767	0.508	0.639	0.229	0.148	0.894	0.596	0.925	0.699	0.234	0.443	0.493	0.446	0.464	0.419
LU99A	0.613	–	0.538	0.539	0.171	0.243	0.212	0.242	0.193	0.141	0.258	0.227	0.298	0.28	0.208	1.11	0.96	1.05	1.06	0.882
NCI-H1993	0.714	0.666	0.72	0.675	0.659	1.11	0.965	1.21	0.967	0.522	0.552	0.627	0.563	0.511	0.492	0.662	0.755	0.93	0.819	0.774
NCI-H1666	1.08	1.07	1.15	0.403	0.212	0.74	0.727	0.778	0.622	0.488	0.61	0.535	0.647	0.448	0.328	0.58	0.709	0.92	0.816	0.499
NCI-H2023	0.578	–	0.582	0.41	0.264	0.5	0.306	0.432	0.127	0.0742	0.377	–	0.38	0.259	0.142	0.649	0.755	0.957	1.02	0.516
NCI-H322M	0.778	0.895	0.771	0.722	0.809	0.761	–	0.795	0.761	0.457	0.457	–	0.509	0.469	0.29	0.507	0.569	0.593	0.585	0.522
NCI-H838	1.02	–	1.06	0.907	0.524	0.752	0.752	0.677	0.372	0.161	0.261	–	0.263	0.235	0.172	0.942	1.05	1.09	0.967	0.45
